Measurements as given in US9963444B2, “N-acylethanolamine hydrolyzing acid amidase (NAAA) inhibitors and their use thereof” (Northeastern University, priority 2014, dated 2018).
Like-named read-outs stand apart in the source and are kept apart here. Blank lines part the entries; values can stand above or below the compound they belong to.

Assays:
hNAAA [1] = molecular target: T1, hNAAA (Homo sapiens (Human), UniProt Q02083); experiment: Fluorescence-based NAAA inhibition assay with fluorogenic substrate PAMCA;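 note: compound preincubated 15 min at room temperature with hNAAA, then PAMCA added at 5 µM, reacted 120 min at 37 °C, AMC release read by fluorescence (ex 360, em 460 nm)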
T1 sequence (Q02083 29-125): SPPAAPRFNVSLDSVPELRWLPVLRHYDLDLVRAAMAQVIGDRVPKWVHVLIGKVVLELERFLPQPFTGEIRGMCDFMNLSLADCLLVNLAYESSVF
T1 sequence (Q02083 126-359): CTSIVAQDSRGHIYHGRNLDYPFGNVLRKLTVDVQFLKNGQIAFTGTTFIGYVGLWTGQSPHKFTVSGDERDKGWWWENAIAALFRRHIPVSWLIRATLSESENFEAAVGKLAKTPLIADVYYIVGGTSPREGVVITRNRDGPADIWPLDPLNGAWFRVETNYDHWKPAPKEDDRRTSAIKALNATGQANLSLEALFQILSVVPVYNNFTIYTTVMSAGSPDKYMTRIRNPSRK
Protocol: For three point concentration inhibition assays with hNAAA the following procedure is used. […] These samples are allowed to incubate for 15 min at room temperature and then 10 μL of a PAMCA stock solution in DMSO (final PAMCA concentration [5 μM]) was added. After 5 minutes of agitation on a shaking plate, the reaction is allowed to proceed at 37° C. for 120 minutes, with fluorescence readings taken every 10 minutes at a wavelength of 460 nm (using an excitation wavelength of 360 nm) on a Synergy HT Plate Reader using Gen5 software from Bio-Tek. The enzyme activity is calculated by converting the relative fluorescence units to AMC formed, using a standard curve of AMC. […] The assay procedure used is the same as the three point assay. […] After 5 minutes of agitation on a shaking plate, the reaction is allowed to proceed at 37° C. for 120 minutes Inhibition constants are calculated using pro Fit software (Quantum Soft, Uetikon am See, Switzerland) and a Levenberg-Marquardt algorithm.
For three point concentration inhibition assays with hNAAA the following procedure is used. […] These samples are allowed to incubate for 15 min at room temperature and then 10 μL of a PAMCA stock solution in DMSO (final PAMCA concentration [5 μM]) was added. After 5 minutes of agitation on a shaking plate, the reaction is allowed to proceed at 37° C. for 120 minutes, with fluorescence readings taken every 10 minutes at a wavelength of 460 nm (using an excitation wavelength of 360 nm) on a Synergy HT Plate Reader using Gen5 software from Bio-Tek. The enzyme activity is calculated by converting the relative fluorescence units to AMC formed, using a standard curve of AMC.
The assay procedure used is the same as the three point assay. […] After 5 minutes of agitation on a shaking plate, the reaction is allowed to proceed at 37° C. for 120 minutes. Inhibition constants are calculated using pro Fit software (Quantum Soft, Uetikon am See, Switzerland) and a Levenberg-Marquardt algorithm.

TNBS-induced colitis = TNBS-induced colitis in mice; assay type: in vivo
Protocol: NAAA inhibitor Example 4 (10 mg/kg bid, ip) *p<0.05 versus the TNBS untreated group.
PEA (10 mg/kg) and NAAA inhibitor Example 4 (AM; 10 mg/kg bid, ip). Mice were sacrificed on day 3 after administration. Effects of PEA and Example 4 on colon weight/length ratio, feces and MPO activity, mRNA expression of F4-80, CD11b, IL-12, TNF-α, MCP-1 and IL-1β expression measured by ELISA. #p<0.05; ##p<0.005; ###p<0.001 versus control mice; *p<0.05 versus the TNBS-untreated group.
TNBS-induced colitis is accompanied by increased pro-inflammatory cytokines expression in the liver and brain. Effects of PEA administration and NAAA inhibition with Example 4 (10 mg/kg b.i.d) on pro-inflammatory cytokines expression in (A) the liver and (B) brain. Results are expressed as mean±SEM with n=10mice/group. *p<0.05; **p<0.005; ***p<0.001 versus the TNBS untreated group.
Applicants also studied the compound of Example 4 in animal models of trinitrobenzene sulfonic acid (TNBS)- and dextran sodium sulfate (DSS)-induced colitis. This study aimed to investigate the effects of inhibiting NAAA responsible for PEA hydrolysis in colon inflammation in order to propose a potential therapeutic target for inflammatory bowel diseases. PEA is a known anti-inflammatory compound with analgesic, neuroprotective and anti-allergic properties, and was recently shown to exert PPARα dependent beneficial effects on colon inflammation [Laboratory Investigation; a Journal of Technical Methods and Pathology. 2004; 84: 1643-54].

hNAAA [2] = molecular target: T1, hNAAA; experiment: Inhibition kinetics of hNAAA (pre-incubation, Lineweaver-Burk plot, rapid dilution); assay type: biochemical
Protocol: The curves represent 15 minutes (filled circles, solid line) and 3 hours (open circles, dotted line) preincubation of hNAAA with NAAA inhibitor Example 4.
Example 4 inhibition kinetics of hNAAA (reversible or irreversible) was investigated using two methods: (1) Short (15 min) and long (180 min) pre-incubation of the inhibitor and enzyme prior to addition of N-(4-methyl coumarin) palmitamide (PAMCA) substrate (FIG. 1). Example's 4 inhibition concentration (IC50) was unaffected by longer pre-incubation of hNAAA with 4.

[3] = 10 mg/kg bid, ip, sacrificed day 3
[4] = read-out: NAAA Inhibition IC50 μM, purified hNAAA, PAMCA 5 μM, pH 4.5

Structure (SMILES): S=C=NCCCCCCCCCCc1ccccc1 [Example 4, (10-Isothiocyanatodecyl)benzene]
IC50 (hNAAA [1]): 0.01 to 0.1 µM
Pro-inflammatory cytokines and chemokines expression in the liver and brain (TNBS-induced colitis; 10 mg/kg b.i.d, liver and brain): decreased
PEA levels in the colon (TNBS-induced colitis; 10 mg/kg bid, ip, TNBS-induced colitis): increased
Expression of pro-inflammatory cytokines and chemokines in colon (TNBS-induced colitis; 10 mg/kg bid, ip, colon): reduced
Leukocyte infiltration and activation (MPO activity, F4-80 and CD11b expression) (TNBS-induced colitis; 10 mg/kg bid, ip, colon): reduced
All measured parameters of colon inflammation (TNBS-induced colitis; [3]): decreased
Colon weight/length ratio (TNBS-induced colitis; [3]): reduced
Weight of the cecal content (TNBS-induced colitis; [3]): reduced
Effect of longer pre-incubation on IC50 (hNAAA [2]; 15 min vs 180 min pre-incubation of inhibitor and enzyme before PAMCA): unaffected
Type of inhibition (Lineweaver-Burk plot) (hNAAA [2]; PAMCA at different concentrations, inhibitor 50 nM): competitive type inhibitor
Mode of inhibition (reversibility) (hNAAA [2]; conclusion from pre-incubation and rapid dilution): reversible and non-covalent inhibitor
Recovery of enzyme activity in rapid dilution experiment (hNAAA [2]; dilution to inhibitor concentration below IC50): fully recovered

IC50 (hNAAA [1]): 0.01 to 0.1 µM
Structure (SMILES): COc1ccc(OC)c(-c2ccc(COC3CN(C#N)C3)cc2)c1 [Example 68, 3-((2′,5′-Dimethoxy-[1,1′-biphenyl]-4-yl)methoxy)azetidine-1-carbonitrile]

Structure (SMILES): CCCCCCCCCCCCCCCC(=O)NCCN=C=S [Example 6, N-(2-isothiocyanatoethyl)palmitamide]
IC50 (hNAAA [1]; [4]): > 1 µM

IC50 (hNAAA [1]): 0.01 to 0.1 µM
Structure (SMILES): N#Cc1ccccc1-c1cc(Oc2ccccc2)ccc1COC1CN(C#N)C1 [Example 93, 3-((2′-Cyano-5-phenoxy-[1,1′-biphenyl]-2-yl)methoxy)azetidine-1-carbonitrile]

Structure (SMILES): COc1ccc(-c2ccc(CO[C@H]3C[C@@H](N=C=S)C3)c(F)c2)cc1OC [Example 40, 3-Fluoro-4-(((1S,3S)-3-isothiocyanatocyclobutoxy)methyl)-3′,4′-dimethoxy-1,1′-biphenyl]
IC50 (hNAAA [1]): 0.01 to 0.1 µM

IC50 (hNAAA [1]): 0.01 to 0.1 µM
Structure (SMILES): COc1ccc(-c2ccc(COC3CN(C#N)C3)cc2)c(OC)c1 [Example 65, 3-((2′,4′-Dimethoxy-[1,1′-biphenyl]-4-yl)methoxy)azetidine-1-carbonitrile]

IC50 (hNAAA [1]): 0.01 to 0.1 µM
Structure (SMILES): N#CN1CC(OCc2ccc(-c3cc(C(F)(F)F)cc(C(F)(F)F)c3)cc2)C1 [Example 71, 3-((3′,5′-Bis(trifluoromethyl)-[1,1′-biphenyl]-4-yl)methoxy)azetidine-1-carbonitrile]

Structure (SMILES): S=C=NCCCCc1ccccc1 [Example 1, (4-isothiocyanatobutyl)benzene]
IC50 (hNAAA [1]; [4]): > 1 µM

IC50 (hNAAA [1]): 0.01 to 0.1 µM
Structure (SMILES): N#CN1CC(OCc2ccc(-c3ccccc3)cc2)C1 [Example 64, 3-([1,1′-Biphenyl]-4-ylmethoxy)azetidine-1-carbonitrile]

IC50 (hNAAA [1]): 0.01 to 0.1 µM
Structure (SMILES): COc1ncccc1-c1cc(Oc2ccccc2)ccc1COC1CN(C#N)C1 [Example 91, 3-((2-(2-Methoxypyridin-3-yl)-4-phenoxybenzyl)oxy)azetidine-1-carbonitrile]

Structure (SMILES): S=C=NCCCCCCCCCCc1ccccn1 [Example 18, 2-(10-Isothiocyanatodecyl)pyridine]
IC50 (hNAAA [1]): 0.01 to 0.1 µM

Structure (SMILES): S=C=NCCCCCCCc1ccc2ccccc2c1 [Example 5, 2-(7-Isothiocyanatoheptyl)naphthalene]
IC50 (hNAAA [1]; [4]): > 1 µM

Structure (SMILES): COc1ccc(-c2ccc(CO[C@@H]3Cc4ccccc4[C@@H]3N=C=S)cc2)cc1F [Example 62, (1S,2R)-2-((3′-fluoro-4′-methoxy-[1,1′-biphenyl]-4-yl)methoxy)-1-isothiocyanato-2,3-dihydro-1H-indene]
IC50 (hNAAA [1]; [4]): > 1 µM

IC50 (hNAAA [1]): 0.11 to 1 µM
Structure (SMILES): N#Cc1ncc(OCCCCCCc2ccccc2)cn1 [Example 115, 5-((6-phenylhexyl)oxy)pyrimidine-2-carbonitrile]

Structure (SMILES): CN(Cc1ccc(-c2ccccc2)cc1)[C@H]1C[C@@H](N=C=S)C1 [Example 54, (1S,3S)—N-([1,1′-biphenyl]-4-ylmethyl)-3-isothiocyanato-N-methylcyclobutan-1-amine]
IC50 (hNAAA [1]): > 1 µM

Structure (SMILES): COc1ccc(-c2ccc(CO[C@H]3C[C@@H](N=C=S)C3)c(F)c2)cc1F [Example 33, 3,3′-Difluoro-4-(((1S,3S)-3-isothiocyanatocyclobutoxy)methyl)-4′-methoxy-1,1′-biphenyl]
IC50 (hNAAA [1]): 0.01 to 0.1 µM

IC50 (hNAAA [1]): 0.01 to 0.1 µM
Structure (SMILES): COc1ccc(-c2ccc(COC3CN(C#N)C3)cc2)cn1 [Example 73, 3-((4-(6-Methoxypyridin-3-yl)benzyl)oxy)azetidine-1-carbonitrile]

IC50 (hNAAA [1]): 0.01 to 0.1 µM
Structure (SMILES): Cc1ccc(-c2ccc(COC3CN(C#N)C3)cc2)cc1 [Example 76, 3-((4′-Methyl-[1,1′-biphenyl]-4-yl)methoxy)azetidine-1-carbonitrile]
